This is an account of results in patent publication US20260028673A1, “PR[…] OF TCF1+ […]-CELLS IN SEVERE COVID-19 AS MEDIATED BY INTERLEUKIN 12 (IL-12)” (priority 2022, published 2026).

In one test the test system is COVID-19. As to conditions: reference 50; cited from earlier work.
Another test has as its system IL-12 production. As to conditions: reference 51; cited from earlier work.
Another test concerns the target IL12p40 (Homo sapiens, UniProt P29460). It counts as cell-based. As to conditions: severe sera, 6 days, FIG. 9D.
The test system of the next test is TCF-1. The note with it: reference 67; transcriptional level, by inhibiting DNA methyltransferases; cited from earlier work.

“Also recorded” adds a separate entry of the source.

Chain of IL12p40 (P29460 23-328): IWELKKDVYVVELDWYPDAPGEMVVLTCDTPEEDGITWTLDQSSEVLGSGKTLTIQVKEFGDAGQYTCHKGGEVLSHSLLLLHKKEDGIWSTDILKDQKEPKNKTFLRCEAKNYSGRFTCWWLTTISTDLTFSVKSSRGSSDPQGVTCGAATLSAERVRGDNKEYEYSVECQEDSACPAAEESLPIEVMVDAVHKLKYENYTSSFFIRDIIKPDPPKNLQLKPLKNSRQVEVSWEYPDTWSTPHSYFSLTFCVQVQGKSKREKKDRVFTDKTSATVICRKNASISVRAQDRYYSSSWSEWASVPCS
Chain of IL12p40 (P29459 23-219, further chain): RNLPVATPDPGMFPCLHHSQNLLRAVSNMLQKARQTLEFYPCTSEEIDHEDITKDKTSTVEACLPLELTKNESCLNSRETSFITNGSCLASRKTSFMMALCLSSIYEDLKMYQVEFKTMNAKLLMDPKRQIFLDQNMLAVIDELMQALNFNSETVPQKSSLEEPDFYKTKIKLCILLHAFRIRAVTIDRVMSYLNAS

`C[C@@H]1C[C@H]2[C@@H]3CCC4=CC(=O)C=C[C@]4(C)[C@@]3(F)[C@@H](O)C[C@]2(C)[C@@]1(O)C(=O)CO` [dexamethasone]: the “Success in treating COVID-19 patients” value in the test on COVID-19 is recorded as “proven successful”. In the test with IL-12 production, the IL-12 production entry was “inhibits IL-12 production”.

“IL-12: proinflammatory cytokine interleukin 12”: the “TCF1 expression in naïve, TCM, TEM and TEMRA T-cell subsets” value in the test with IL12p40 is recorded as “restored”. The “TCF-1 (TCF1) expression” value with TCF-1 is reported as “down-regulate TCF-1 at the transcriptional level; also recorded: downregulate TCF1”.
